From patent publication US10759796B2, “CXCR4 inhibitors and uses thereof” (X4 Pharmaceuticals, Inc., priority 2016, dated 2020)
Where two headings read alike, the source gives them in different places.

Experiments:
[1] = Fraction of drug unbound to brain proteins, mouse; type: in vitro ADME; conditions: read-out: Fu (b) %
[2] = Fraction of drug unbound to plasma proteins, mouse; type: in vitro ADME; conditions: read-out: Fu (p) %
[3] = Mouse brain uptake assay (pharmacokinetics and brain penetration after IV administration), 0-1 h, 3 time points; type: in vivo, Male CD1 Mice; conditions: male; for Kp uu: CD1, brain and plasma, read-out: Kp, uu (unbound brain/unbound plasma drug concentration ratio); for Kp uu / clearance / half-life: Mouse, 0-1 h; for Kp uu / clearance / half-life / AUC(0-t): 3 mg/kg IV; for Kp: CD1, mouse, brain and plasma, iv, 3 mg/kg, read-out: Kp (brain/plasma drug concentration ratio); for clearance / half-life: CD1, plasma, 3 time points; for half-life: read-out: t½ (converted); for AUC(0-t): CD1, time zero to 1 hr
Experimental: Example 29: Pharmacokinetics and Brain Penetration Experiment to Determine Brain and Plasma Concentrations of Compounds After IV Administration to Male CD1 Mice or Male SD Rat
The study design (9 animals) consisted of administrating the drug (IV: 3 mg/kg (5 mL/kg) via tail vein injection) and collecting samples at terminal bleeding for plasma and brain at 0.083, 0.5 and 1 h. The blood collection was performed as follows: the animal was restrained manually and approximately 150 μL blood/time point was collected into a dipotassium EDTA tube via retro orbital puncture under anesthesia with isoflurane. The blood sample was put on ice and centrifuged to obtain a plasma sample (2000 g, 5 min under 4° C.) within 15 minutes. The brain collection was performed as follows: a mid-line incision was made in the animal's scalp and the skin was retracted. Using small bone cutters and rongeurs, the skull overlying the brain was removed. The brain was removed using a spatula and the brain rinsed with cold saline. The brain was placed in screw-top tubes, and the tubes were stored at −70° C. until analysis. The IV dosing solution was prepared in 50 mM citrate buffer (pH 4.0) at 0.6 mg/mL.
Plasma Sample Preparation:
An aliquot of 30 μL sample was added to 150 μL MeCN containing 50 ng/mL IS (Dexamethasone). The mixture was vortexed for 5 min and centrifuged at 14,000 rpm for 5 min. An aliquot of 5 μL supernatant was injected for LC-MS/MS analysis.
Brain Sample Preparation:
An aliquot of 30 μL brain homogenate (brain:PBS=1:3, w/v) sample was added to 150 μL IS in ACN (Dexamethasone, 50 ng/mL). The mixture was vortexed for 5 min and centrifuged at 14,000 rpm for 5 min. An aliquot of 5 μL supernatant was injected for LC-MS/MS analysis.
The sample analysis was performed on LCMS/MS-003 (API4000, triple quadruple) under the following conditions: positive ion, ESI, MRM detection using dexamethasone as internal standard. HPLC conditions: mobile phase A: H2O (0.025% formic acid (FA) with 1 mM NH4OAc); mobile phase B: MeOH (0.025% FA with 1 mM NH4OAc) on Waters X-Bridge C18 (2.1×50 mm, 2.5 μm) column at 60° C.

[4] = target: Jurkat cells expressing CXCR4 (Homo sapiens (Human), UniProt P61073); assay: Chemokine (CXCL12-AF647) binding inhibition assay; conditions: CXCL12-AF647 25 ng/mL, read-out: IC50 CXCL-12 binding Jurkat
Chain of Jurkat cells expressing CXCR4 (P61073 whole entry): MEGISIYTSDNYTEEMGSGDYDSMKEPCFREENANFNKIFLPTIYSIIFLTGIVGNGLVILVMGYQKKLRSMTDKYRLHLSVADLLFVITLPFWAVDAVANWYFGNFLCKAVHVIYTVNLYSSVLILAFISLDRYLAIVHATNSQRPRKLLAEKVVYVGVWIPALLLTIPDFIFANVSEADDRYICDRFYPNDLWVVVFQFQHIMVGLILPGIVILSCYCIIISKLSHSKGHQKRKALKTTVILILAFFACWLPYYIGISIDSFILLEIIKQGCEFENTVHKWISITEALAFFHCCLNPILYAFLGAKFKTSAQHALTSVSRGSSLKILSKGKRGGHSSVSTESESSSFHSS
How it was run: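 Cells in HBSS, 20 mM HEPES, 0.2% BSA, pH 7.4, preincubated 15 min at room temperature with compound, then 25 ng/mL CXCL12-AF647 for 30 min. After washing and paraformaldehyde fixation, bound ligand read by flow cytometry; percent inhibition calculated from MFI relative to unlabeled and ligand-only controls.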

[5] = target: CXCR-4 transfected U87 cell line (U87.CXCR4) (Homo sapiens (Human), UniProt P61073); assay: Intracellular CXCL-12-induced calcium mobilization assay (FLIPR); type: cell-based; conditions: U87.CXCR4 cells, CXCL-12 25-50 ng/mL; read-out: IC50 CXCL-12 Ca2+ flux U87.CXCR4+
Chain of CXCR-4 transfected U87 cell line (U87.CXCR4) (P61073 whole entry): as above
How it was run: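 U87.CXCR4 cells were seeded at 20,000 per well, cultured 12 hours, then loaded with 4 μM Fluo-2 AM for 45 min at 37° C. in HBSS with 20 mM HEPES and 0.2% BSA, pH 7.4. Calcium flux triggered by CXCL-12 (25-50 ng/mL) was tracked over time by FLIPR fluorescence at 37° C.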

[6] = Mouse plasma proteins (Table 9)
[7] = Mouse brain, read-out: AUClast (b)
[8] = Mouse plasma, read-out: AUClast (p)

Row | fraction unbound ([1]; Mouse brain proteins (Table 9)) | fraction unbound [2, 6] | Kp uu [3] | Kp [3] | clearance [3] | half-life [3] | AUC(0-t) [3, 7] | AUC(0-t) [3, 8] | IC50 [4] | IC50 [5] | Structure (SMILES) | fraction unbound ([1]; Mouse brain proteins (Table 12)) | fraction unbound ([2]; Mouse plasma proteins (Table 12))
1 |  |  |  |  |  |  |  |  | 0.01 to 100 nM | 100 to 1000 nM | CN1CCN(c2cccc3nc([C@@H]4CCC[C@H](c5ncccc5Cl)N4)cn23)CC1 (single isomer, unassigned) [Compound I-189] |  | 
2 |  |  |  | 0.61 | 48.3 mL/min/kg | 216 min | 326 ng·h/mL | 531 ng·h/mL | 100 to 1000 nM | 0.01 to 100 nM | Cc1cccnc1[C@@H]1CCC[C@H](c2cn3c(-c4cccnc4)cccc3n2)N1C [Compound I-6] |  | 
3 | 0.002 | 0.054 | 0.43 | 11.8 | 245 mL/min/kg | 20.6 min | 2060 ng·h/mL | 175 ng·h/mL | 0.01 to 100 nM | 0.01 to 100 nM | Cc1cccnc1[C@@H]1CCC[C@H](c2nc3cccc(N4CCN(C)CC4)n3c2Cl)N1C [Compound I-18] |  | 
4 | 0.001 | 0.028 | 0.32 | 8.84 | 223 mL/min/kg | 21.8 min | 1690 ng·h/mL | 191 ng·h/mL | 0.01 to 100 nM | 0.01 to 100 nM | CCN1CCN(c2cccc3nc([C@H]4CCC[C@@H](c5ncccc5C)N4C)c(Br)n23)CC1 [Compound I-19] |  | 
5 | 0.001 | 0.021 | 0.3 | 6.29 | 173 mL/min/kg | 22.4 min | 1520 ng·h/mL | 241 ng·h/mL | 0.01 to 100 nM | 100 to 1000 nM | Cc1cccnc1[C@@H]1CCC[C@H](c2nc3cccc(N4CCN(C(C)C)CC4)n3c2Br)N1C [Compound I-20] |  | 
6 | 0.003 | 0.028 | 0.08 | 0.76 | 117 mL/min/kg | 43.2 min | 205 ng·h/mL | 267 ng·h/mL | 0.01 to 100 nM | 0.01 to 100 nM | Cc1cccnc1[C@@H]1CCC[C@H](c2nc3cccc(N4CCC(N(C)C)CC4)n3c2Cl)N1C [Compound I-114] |  | 
7 | 0.006 | 0.053 | 0.21 | 1.86 | 7.22 mL/min/kg | 361 min | 1640 ng·h/mL | 884 ng·h/mL | 0.01 to 100 nM | 100 to 1000 nM | Cc1cccnc1[C@@H]1CCC[C@H](c2nc3cccc(N4CCN(C)CC4)n3c2Cl)N1 [Compound I-146] |  | 
8 | 0.071 | 0.249 | 0.05 | 0.22 | 127 mL/min/kg | 21.2 min | 76.5 ng·h/mL | 335 ng·h/mL | 0.01 to 100 nM | 0.01 to 100 nM | Cc1cccnc1[C@@H]1CCC[C@H](c2cn3c(N4CCN(C)CC4)cccc3n2)N1 [Compound I-187] |  | 

Row | Structure (SMILES) | fraction unbound ([1]; Mouse brain proteins (Table 9)) | fraction unbound [2, 6] | Kp uu [3] | Kp [3] | clearance [3] | half-life [3] | AUC(0-t) [3, 7] | AUC(0-t) [3, 8] | IC50 [4] | IC50 [5] | fraction unbound ([1]; Mouse brain proteins (Table 12)) | fraction unbound ([2]; Mouse plasma proteins (Table 12))
9 | CN1CCN(c2cccc3nc([C@H]4CCC[C@@H](c5ncccc5Cl)N4)cn23)CC1 (racemic) [Compound I-149] | 0.026 | 0.099 | 0.38 | 1.45 | 207 mL/min/kg | 22 min | 295 ng·h/mL | 203 ng·h/mL | 0.01 to 100 nM | 0.01 to 100 nM |  | 
10 | CN1CCN(c2cccc3nc([C@H]4CCC[C@@H](c5ncccc5Cl)N4)cn23)CC1 (single isomer, unassigned) [Compound I-188] |  |  |  |  |  |  |  |  | 0.01 to 100 nM | 0.01 to 100 nM | 0.054 | 0.143
